Patent US10617117B2, “Insect repellent composition and method of use” (NEO-INNOVA HEALTHCARE LIMITED, priority 2015, dated 2020)
“Also recorded” adds a separate entry of the source.

Legend:
[1] = test system: biting flies, such as a mosquito; conditions: in vivo; cited from earlier work
[2] = Stability tests, accelerated storage 54° C. for 14 days (discoloration of vanillin); type: physicochemical; conditions: room temperature and 54° C.; antioxidant added to vanillin-containing composition
Description: […] The front line accelerated conditions recommend testing at 54° C. for 14 days (see BPR 528/2012: Volume I. Part A, Chapter III: Requirements for Biocide Products, Version 1.1 Nov. 2014).

[3] = human skin; cited from earlier work
[4] = test system: Culex spp., Aedes spp., Mansonia spp., and Verrallina spp.; conditions: compared with Anopheles spp.; cited from earlier work
Aedes Aegypti = conditions: at circa 50% concentrations, FIG. 1; cited from earlier work
[5] = test system: Aedes aegypti female mosquitoes; assay: laboratory arm or hand in cage test (complete protection time); type: in vivo; conditions: Citriodiol as active substance, with vanillin, FIG. 14
Description: Complete protection times are calculated as the number of minutes (or hours) elapsed between the time of repellent application and the first mosquito landing or probing. Complete Protection Times are reported herein as a median value of protection time given by each individual. Complete Protection Times are abbreviated herein as CPTs. […]
Complete protection time provided by each product was evaluated by following hand in cage studies as per a modified WHO protocol (HTM/NTD/WHOPES/2009.4).
Typically, the test consisted of inserting a repellent treated arm into a cage measuring 35 cm on each side, containing laboratory bred 200 numbers of non-blood fed Aedes Aegypti mosquitoes which were approximately 5-7 days old and the elapsed time to first landing or probing (which refers to an insect landing and penetrating the skin with its mouthparts, without ingesting blood) was determined. […]
Readiness of the mosquitoes to bite (biting pressure) was checked by inserting un-treated arm for 1 minute prior to inserting treated arm at each 30-minute interval. […] Complete protection time was calculated as the number of minutes (or hours) elapsed between the time of repellent application and the first mosquito landing or probing. […]

SMILES | CPTs compared with DEET [1] | photosensitisation and secondary oxidation (discoloration) of vanillin [2] | further results
CCCCN(CCC(=O)OCC)C(C)=O [IR3535, ethyl butylacetylaminopropionate] | neither ethyl butylacetylaminopropionate (IR3535) nor Picaridin (KBR 3023) has demonstrated meaningful superiority to DEET |  | 
CCC(C)OC(=O)N1CCCCC1CCO (stereo not drawn) [Picaridin] | neither ethyl butylacetylaminopropionate (IR3535) nor Picaridin (KBR 3023) has demonstrated meaningful superiority to DEET |  | 
COc1ccc(O)c(C(C)(C)C)c1 [BHA] |  | negative | 
CCCOC(=O)c1cc(O)c(O)c(O)c1 [propyl gallate] |  | negative | 
CCN(CC)C(=O)c1cccc(C)c1 [DEET, N,N-Diethyl-3-methylbenzamide] |  |  | absorption through skin [3]: absorbed through human skin; protection against different mosquito genera [4]: longer against these genera than provided against Anopheles spp.; CPT at which activity plateaus (Aedes Aegypti): 5 to 6 h
O=S([O-])O.[Na+] [sodium bisulphite] |  | Lack of photosensitisation and secondary oxidation of vanillin; also recorded: one significant exception | effect of addition of 1% antioxidant on efficacy (CPTs) [5]: still further significant improvement in efficacy
